Test results from paper PMC9395488, “First-in-human study of IM156, a novel potent biguanide oxidative phosphorylation (OXPHOS) inhibitor, in patients with advanced solid tumors” (Investigational New Drugs, 2022).

Test system: patients with advanced solid tumors
Experiment: First-in-human phase 1 dose-escalation study: safety, DLTs, adverse events
Format: in vivo
Source text: This multicenter first-in-human dose-escalation phase 1 study (clinicaltrials.gov identifier: NCT03272256) was designed to determine the MTD or RP2D and to evaluate the safety and tolerability of IM156. Secondary endpoints included PK characteristics, efficacy assessment (objective response rate [ORR], disease control rate [DCR], duration of response [DoR] and progression-free survival [PFS]). Furthermore, exploratory objectives included identification and profiling of IM156 metabolites, evaluations of exploratory PD markers of IM156, and evaluations of any potential relationship between putative biomarkers and safety/efficacy parameters of IM156. The study was conducted in accordance with Good Clinical Practice, the International Council for Harmonisation, and guidelines governing clinical study conduct and the ethical principles originating from the Declaration of Helsinki. The study was approved by each Institutional Review Board and patients provided written informed consent. Patients were enrolled at three sites in South Korea.
The initial dose and schedule of IM156 was chosen based on animal toxicology studies. […] IM156 was administered in the fasted state, with no food for at least 2 h before and 1 h after dosing.
Three DLT-evaluable patients were enrolled at each dose level. If there were no DLTs or other prohibitive adverse events (AEs), the Safety Committee was allowed to recommend escalation to the next highest dose level. If 1 DLT occurred in the first 3 DLT-evaluable patients, enrollment in that cohort was expanded to an additional 3 DLT-evaluable patients; if ≥ 2 DLTs were reported in a cohort, that dose was considered above the MTD.
Safety was assessed through vital signs, weight, laboratory assessments, physical examinations, electrocardiogram, and reporting of AEs as graded by the National Cancer Institute’s Common Terminology Criteria for Adverse Events v4.03 (NCI-CTCAE).
DLTs were defined as the following AEs if they were attributed as related to IM156: asymptomatic grade 4 neutropenia lasting for ≥ 5 days; febrile neutropenia, regardless of grade; grade 4 thrombocytopenia or grade 3 thrombocytopenia with bleeding; any grade ≥ 3 non-hematologic AE (except grade 3 hypertension and grade 3 nausea, vomiting or diarrhea for which proper measures for prevention and treatment were not implemented, and alopecia); blood lactate levels > 5 mmol; grade ≥ 2 AE prohibiting dosing of IM156 for ≥ 21 continuous days except for alterations in serum calcium or phosphorus levels. The safety analysis includes all patients who received at least one dose of study drug.
The safety population was defined as all patients who received at least one dose of IM156. The PK population was not defined in the protocol but included all patients with sufficient PK data to perform adequate PK modeling. The efficacy population included all patients who underwent at least one tumor imaging assessment while receiving IM156. Safety was assessed using descriptive statistics (e.g., DLTs, AEs, laboratory tests, physical examination, 12-lead ECG). The incidence and number of events were reported for the DLTs observed in Cycle 1 per dose group. […] Adverse events and TRAEs were standardized with the System Organ Class and the Preferred Term using the Medical Dictionary for Regulatory Activities v23.0. In addition, TEAEs, serious adverse events (SAEs), TEAE severity, and TEAEs leading to withdrawal were presented by dose group. Efficacy data were to be presented by Waterfall and Swim Lane plots. Time to event endpoints (e.g., DoR, PFS) were determined using Kaplan–Meier estimations with the median value for each endpoint summarized.

NC(=Nc1ccc(OC(F)(F)F)cc1)N=C(N)N1CCCC1 [IM156]
TEAE Pain in extremity grade 4 (DL6 800 mg orally daily (n=3)): 0
TEAE Pruritus grade 1 (DL6 800 mg orally daily (n=3)): 0
TEAE Pruritus grade 2 (DL6 800 mg orally daily (n=3)): 0
TEAE Pruritus grade 3 (DL6 800 mg orally daily (n=3)): 0
TEAE Pruritus grade 4 (DL6 800 mg orally daily (n=3)): 0
TEAE Psychiatric disorders grade 1 (DL6 800 mg orally daily (n=3)): 1
TEAE Psychiatric disorders grade 2 (DL6 800 mg orally daily (n=3)): 0
TEAE Psychiatric disorders grade 3 (DL6 800 mg orally daily (n=3)): 0
TEAE Psychiatric disorders grade 4 (DL6 800 mg orally daily (n=3)): 0
TEAE Purpura grade 1 (DL6 800 mg orally daily (n=3)): 0
TEAE Purpura grade 2 (DL6 800 mg orally daily (n=3)): 0
TEAE Purpura grade 3 (DL6 800 mg orally daily (n=3)): 0
TEAE Purpura grade 4 (DL6 800 mg orally daily (n=3)): 0
TEAE Urinary retention grade 1 (DL6 800 mg orally daily (n=3)): 0
TEAE Urinary retention grade 2 (DL6 800 mg orally daily (n=3)): 0
TEAE Urinary retention grade 3 (DL6 800 mg orally daily (n=3)): 0
TEAE Urinary retention grade 4 (DL6 800 mg orally daily (n=3)): 0
TEAE Urinary tract disorder grade 1 (DL6 800 mg orally daily (n=3)): 0
TEAE Urinary tract disorder grade 2 (DL6 800 mg orally daily (n=3)): 0
TEAE Urinary tract disorder grade 3 (DL6 800 mg orally daily (n=3)): 0
TEAE Urinary tract disorder grade 4 (DL6 800 mg orally daily (n=3)): 0
TEAE Abdominal pain, grade 2 (DL7 1200 mg QD (n=4)): 2
TEAE Akathisia, grade 2 (DL7 1200 mg QD (n=4)): 1
TEAE Alanine aminotransferase increased, grade 1 (DL7 1200 mg QD (n=4)): 1
TEAE Aspartate aminotransferase increased, grade 1 (DL7 1200 mg QD (n=4)): 1
TEAE Blood creatinine increased, grade 1 (DL7 1200 mg QD (n=4)): 2
TEAE Blood lactic acid increased, grade 1 (DL7 1200 mg QD (n=4)): 1
TEAE Constipation, grade 1 (DL7 1200 mg QD (n=4)): 1
TEAE Decreased appetite, grade 2 (DL7 1200 mg QD (n=4)): 1
TEAE Diarrhoea, grade 1 (DL7 1200 mg QD (n=4)): 2
TEAE Dysesthesia, grade 1 (DL7 1200 mg QD (n=4)): 1
TEAE Fatigue, grade 2 (DL7 1200 mg QD (n=4)): 3
TEAE Gastritis, grade 1 (DL7 1200 mg QD (n=4)): 1
TEAE Hemoptysis, grade 2 (DL7 1200 mg QD (n=4)): 1
TEAE Hyperkalaemia, grade 3 (DL7 1200 mg QD (n=4)): 1
TEAE Ileus, grade 2 (DL7 1200 mg QD (n=4)): 1
TEAE Influenza like illness, grade 1 (DL7 1200 mg QD (n=4)): 1
TEAE Lethargy, grade 2 (DL7 1200 mg QD (n=4)): 1
TEAE Nausea, grade 2 (DL7 1200 mg QD (n=4)): 2
TEAE Nausea, grade 3 (DL7 1200 mg QD (n=4)): 2
TEAE Oedema peripheral, grade 2 (DL7 1200 mg QD (n=4)): 1
TEAE Pain, grade 2 (DL7 1200 mg QD (n=4)): 1
TEAE Platelet count decreased, grade 1 (DL7 1200 mg QD (n=4)): 1
TEAE Pyrexia, grade 1 (DL7 1200 mg QD (n=4)): 2
TEAE Pyrexia, grade 2 (DL7 1200 mg QD (n=4)): 1
TEAE Vomiting, grade 1 (DL7 1200 mg QD (n=4)): 3
TRAE Abdominal Pain, > G3 (patients) (DL7 1,200 mg QD, N = 4): 0
TRAE Abdominal Pain, All grades (patients) (DL7 1,200 mg QD, N = 4): 1
TRAE Blood Lactic Acid increased, > G3 (patients) (DL7 1,200 mg QD, N = 4): 0
TRAE Blood Lactic Acid increased, All grades (patients) (DL7 1,200 mg QD, N = 4): 1
TRAE Constipation, > G3 (patients) (DL7 1,200 mg QD, N = 4): 0
TRAE Constipation, All grades (patients) (DL7 1,200 mg QD, N = 4): 1
TRAE Decreased appetite, > G3 (patients) (DL7 1,200 mg QD, N = 4): 0
TRAE Decreased appetite, All grades (patients) (DL7 1,200 mg QD, N = 4): 1
TRAE Diarrhoea, > G3 (patients) (DL7 1,200 mg QD, N = 4): 0
TRAE Diarrhoea, All grades (patients) (DL7 1,200 mg QD, N = 4): 1
TRAE Fatigue, > G3 (patients) (DL7 1,200 mg QD, N = 4): 0
TRAE Fatigue, All grades (patients) (DL7 1,200 mg QD, N = 4): 3
TRAE Insomnia, > G3 (patients) (DL7 1,200 mg QD, N = 4): 0
TRAE Insomnia, All grades (patients) (DL7 1,200 mg QD, N = 4): 0
TRAE Nausea, > G3 (patients) (DL7 1,200 mg QD, N = 4): 2
TRAE Nausea, All grades (patients) (DL7 1,200 mg QD, N = 4): 4
TRAE Vomiting, > G3 (patients) (DL7 1,200 mg QD, N = 4): 0
TRAE Vomiting, All grades (patients) (DL7 1,200 mg QD, N = 4): 3
TEAE Adrenal insufficiency grade 1 (DL7 1200 mg orally daily (n=4)): 0
TEAE Adrenal insufficiency grade 2 (DL7 1200 mg orally daily (n=4)): 0
TEAE Adrenal insufficiency grade 3 (DL7 1200 mg orally daily (n=4)): 0
TEAE Adrenal insufficiency grade 4 (DL7 1200 mg orally daily (n=4)): 0
TEAE Anaemia grade 1 (DL7 1200 mg orally daily (n=4)): 0
TEAE Anaemia grade 2 (DL7 1200 mg orally daily (n=4)): 1
TEAE Anaemia grade 3 (DL7 1200 mg orally daily (n=4)): 1
TEAE Anaemia grade 4 (DL7 1200 mg orally daily (n=4)): 0
TEAE Appendicitis perforated grade 1 (DL7 1200 mg orally daily (n=4)): 0
TEAE Appendicitis perforated grade 2 (DL7 1200 mg orally daily (n=4)): 0
TEAE Appendicitis perforated grade 3 (DL7 1200 mg orally daily (n=4)): 1
TEAE Appendicitis perforated grade 4 (DL7 1200 mg orally daily (n=4)): 0
TEAE Back pain grade 1 (DL7 1200 mg orally daily (n=4)): 0
TEAE Back pain grade 2 (DL7 1200 mg orally daily (n=4)): 0
TEAE Back pain grade 3 (DL7 1200 mg orally daily (n=4)): 0
TEAE Back pain grade 4 (DL7 1200 mg orally daily (n=4)): 0
TEAE Cystitis grade 1 (DL7 1200 mg orally daily (n=4)): 0
TEAE Cystitis grade 2 (DL7 1200 mg orally daily (n=4)): 0
TEAE Cystitis grade 3 (DL7 1200 mg orally daily (n=4)): 0
TEAE Cystitis grade 4 (DL7 1200 mg orally daily (n=4)): 0
TEAE Dry skin grade 1 (DL7 1200 mg orally daily (n=4)): 0
TEAE Dry skin grade 2 (DL7 1200 mg orally daily (n=4)): 1
TEAE Dry skin grade 3 (DL7 1200 mg orally daily (n=4)): 0
TEAE Dry skin grade 4 (DL7 1200 mg orally daily (n=4)): 0
TEAE Flank pain grade 1 (DL7 1200 mg orally daily (n=4)): 0
TEAE Flank pain grade 2 (DL7 1200 mg orally daily (n=4)): 0
TEAE Flank pain grade 3 (DL7 1200 mg orally daily (n=4)): 0
TEAE Flank pain grade 4 (DL7 1200 mg orally daily (n=4)): 0
TEAE Hypertension grade 1 (DL7 1200 mg orally daily (n=4)): 0
TEAE Hypertension grade 2 (DL7 1200 mg orally daily (n=4)): 0
TEAE Hypertension grade 3 (DL7 1200 mg orally daily (n=4)): 0
TEAE Hypertension grade 4 (DL7 1200 mg orally daily (n=4)): 0
TEAE Hypotension grade 1 (DL7 1200 mg orally daily (n=4)): 0
TEAE Hypotension grade 2 (DL7 1200 mg orally daily (n=4)): 0
TEAE Hypotension grade 3 (DL7 1200 mg orally daily (n=4)): 0
TEAE Hypotension grade 4 (DL7 1200 mg orally daily (n=4)): 0
TEAE Insomnia grade 1 (DL7 1200 mg orally daily (n=4)): 0
TEAE Insomnia grade 2 (DL7 1200 mg orally daily (n=4)): 0
TEAE Insomnia grade 3 (DL7 1200 mg orally daily (n=4)): 0
TEAE Insomnia grade 4 (DL7 1200 mg orally daily (n=4)): 0
TEAE Pain in extremity grade 1 (DL7 1200 mg orally daily (n=4)): 0
TEAE Pain in extremity grade 2 (DL7 1200 mg orally daily (n=4)): 0
TEAE Pain in extremity grade 3 (DL7 1200 mg orally daily (n=4)): 0
TEAE Pain in extremity grade 4 (DL7 1200 mg orally daily (n=4)): 0
TEAE Pruritus grade 1 (DL7 1200 mg orally daily (n=4)): 1
TEAE Pruritus grade 2 (DL7 1200 mg orally daily (n=4)): 0
TEAE Pruritus grade 3 (DL7 1200 mg orally daily (n=4)): 0
TEAE Pruritus grade 4 (DL7 1200 mg orally daily (n=4)): 0
TEAE Psychiatric disorders grade 1 (DL7 1200 mg orally daily (n=4)): 0
TEAE Psychiatric disorders grade 2 (DL7 1200 mg orally daily (n=4)): 0
TEAE Psychiatric disorders grade 3 (DL7 1200 mg orally daily (n=4)): 0
TEAE Psychiatric disorders grade 4 (DL7 1200 mg orally daily (n=4)): 0
TEAE Purpura grade 1 (DL7 1200 mg orally daily (n=4)): 1
